The numbers were not newly measured in patent US20120322767A1, “FORMULATIONS OF BISPHOSPHONATES AND VITAMIN D SUIUTABLE FOR INTERMITTENT INTRAMUSCULAR AND SUBCUTANEOUS ADMINISTRATION” (priority 2009, published 2012), which cites them from elsewhere.

Where only a bound is given, the exact number is not on record here.

For data set [1] the following is noted: humans, ratio of urinary or plasma concentrations (AUC) after intravenous and oral administration.
For data set [2] the following is noted: man, oral, 100,000 IU, maintained for two months.

Turning to `CC(O)(P(=O)(O)O)P(=O)(O)O` [etidronate], in data set [1], the Oral bioavailability is reported as 3-7%.
As to vitamin D, the “Serum levels of calcidiol” value in data set [2] is greater than 80 nM.
Consider `O=P(O)(O)C(Cl)(Cl)P(=O)(O)O` [clodronate], for which the Oral bioavailability in data set [1] is listed as 1-2%.
For the compound `NCCC(O)(P(=O)(O)O)P(=O)(O)O` [pamidronate], in data set [1], the Oral bioavailability is given as roughly 0.3%.
